Experiment in all cases: NCI tumour cell line growth inhibition, 48 h
Experiment [1] has as its system SK-OV-3 ovarian.
Experiment [2] relates to UACC-62 melanoma.
The test system of experiment [3] is KM12 colon.
The test system of experiment [4] is HCC-2998 colon.
The subject of experiment [5] is K-562 leukemia.
Experiment [6] relates to DU-145 prostate.
For experiment [7], the system named is MDA-MB-231 breast.
The test system of experiment [8] is NCI-H460 lung.
For experiment [9], the system named is M14 melanoma.
Experiment [10] deals with NCI-H226 lung.

Molecules are shown by their SMILES.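 Test compounds were applied to cells in 96-well plates for 48 hours at 5 doses. GI50 = concentration required for 50% inhibition of growth. TGI: total growth inhibition.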

For the compound `SCCSCCCSCCS`, the TGI in [1], in experiment [2], in experiment [3], in experiment [4], in [5] and in [6] was over 100 µM each time. Also, the TGI in experiment [7], in [8] and in experiment [9] was over 100 µM each time.

Turning to `COC(=O)c1cc(O)c2c(c1C(=O)OC)C[C@H]1[C@@H]3CC=C4C[C@@H](O)CC[C@]4(C)[C@H]3CC[C@]21C`, the GI50 is 4.75 µM in experiment [1]; 2.91 µM in [3]; 3.74 µM in [4]; 2.41 µM in [5]; 3.78 µM in experiment [10]; 3.89 µM in [6]. For the same compound, the figures for the GI50 in [7], in experiment [8] and in experiment [9] were 2.52 µM, 3.24 µM and 3.47 µM, respectively. The TGI came out at 27.4 µM in experiment [1]; 12.2 µM in experiment [3]; 16 µM in experiment [4]; 7.77 µM in experiment [5]; 20 µM in experiment [10]; 16.1 µM in [6]. In addition, the TGI in experiment [7] was determined as 7.41 µM; in experiment [8], 12.7 µM; in experiment [9] it was 18.7 µM.

`COc1ccc(/C=N\Nc2ccc([N+](=O)[O-])cn2)cc1OC`: the GI50 in [1] was 3.48 µM; in experiment [2] it was over 100 µM; in [4] it was over 100 µM; in experiment [5], over 100 µM; in [10], 8.39 µM; in experiment [6] it was over 100 µM. The GI50 was 6.82 µM in experiment [7] and over 100 µM in experiment [9]. Moreover, the TGI in [1] was 24.3 µM; in [2] it was over 100 µM; in experiment [4], over 100 µM; in [5], over 100 µM; in [10], over 100 µM; in experiment [6] it was over 100 µM. For the same compound, the TGI in experiment [7] and in experiment [9] was over 100 µM each time.

`CC1(CCC(=O)OC2CCCCC2)OCCO1`: the TGI in [1], in [2], in experiment [3], in [5], in experiment [10] and in experiment [6] was over 100 µM each time. Further, the TGI in [7], in [8] and in experiment [9] was over 100 µM each time.

Regarding `Cc1cc(C)c(Cn2cnc3c(Cl)ncnc32)c(C)c1CCl`, the GI50 is 53.7 µM in [1]; 61.3 µM in experiment [2]; 31.1 µM in [3]; 19 µM in experiment [4]; 44.2 µM in [5]; over 100 µM in experiment [10]. Also, the GI50 in experiment [7] is over 100 µM; in experiment [8], 32.7 µM; in [9] it was 99.4 µM. The TGI is over 100 µM in experiment [1]; over 100 µM in [2]; over 100 µM in experiment [3]; 46.7 µM in experiment [4]; over 100 µM in experiment [5]; over 100 µM in experiment [10]. Also, the TGI in experiment [7], in experiment [8] and in [9] was over 100 µM in each case.

On to `C=C(Nc1ccc([N+](=O)[O-])cc1[N+](=O)[O-])c1c/c(=N\NC(N)=S)c2ccccc2o1`, for which the TGI in [1], in experiment [2], in experiment [3], in experiment [4], in experiment [10] and in experiment [6] was over 100 µM in each case. In addition, the TGI in [7], in experiment [8] and in experiment [9] was over 100 µM throughout.

`CN/N=C(\C)C(CN(C)C)C(c1ccccc1)c1c(O)c2ccccc2oc1=O` (stereo not drawn): the TGI in experiment [2], in experiment [3], in [4], in experiment [5], in experiment [10] and in experiment [6] was over 100 µM each time. Moreover, the TGI in [7], in [8] and in experiment [9] was over 100 µM in each case.

In the case of `COc1cccc(/C=C/C(=O)c2ccc(Cl)cc2Cl)c1`, the GI50 in [2] was 8.06 µM; in [3] it was 17.2 µM; in experiment [5], 3.22 µM; in experiment [10], 9.79 µM; in experiment [6], 9.42 µM; in experiment [7], 8.11 µM. For the same compound, the GI50 in experiment [8] was 11.9 µM; in [9] it was 10.3 µM. In addition, the TGI was 15.5 µM in [2]; over 50 µM in experiment [3]; 26.9 µM in experiment [5]; 25.7 µM in [10]; 17.3 µM in experiment [6]; 15.9 µM in experiment [7]. Moreover, the results for the TGI in experiment [8] and in experiment [9] were 40.2 µM and 22.3 µM, respectively.

Regarding `N#CC1=C(N)NC(N2CCOCC2)=NC12Nc1ccccc1N2`, the GI50 is 58.1 µM in experiment [1]; 32.2 µM in experiment [2]; over 100 µM in experiment [3]; over 100 µM in experiment [5]; 27.3 µM in experiment [10]; 63.6 µM in [6]. Moreover, the values for the GI50 in experiment [7] and in [9] were 15.3 µM and over 100 µM, respectively. Besides, the TGI in experiment [1] was over 100 µM; in experiment [2], 82.1 µM; in experiment [3], over 100 µM; in experiment [5], over 100 µM; in [10], over 100 µM; in experiment [6], over 100 µM. Also, the TGI in [7] was 70.3 µM; in experiment [9], over 100 µM.

Regarding `N#CCN/C=C\C(=O)c1ccc(Cl)cc1`, the GI50 was 34.7 µM in experiment [1]; 15.7 µM in [2]; 36.5 µM in experiment [3]; 31.1 µM in [5]; 30 µM in experiment [10]; 41.4 µM in experiment [6]. Also, the GI50 in experiment [7] is 31.8 µM; in experiment [8], 42.1 µM; in experiment [9], 20.3 µM. For the same compound, the TGI is over 100 µM in experiment [1]; 49.3 µM in [2]; over 100 µM in [3]; over 100 µM in experiment [5]; over 100 µM in experiment [10]; over 100 µM in [6]. The TGI in experiment [7], in experiment [8] and in [9] was over 100 µM each time.

The values above are taken from PubChem BioAssay (NCI).
